Source: US20040138212A1, “Disubstituted 1,7-guanines” (priority 2001, published 2004)

Target: telomerase enzyme (Homo sapiens, UniProt O14746)
Experiment: Flash Plate-based telomerase assay
Format: biochemical
Details: telomerase inhibition, two hours of incubation
From the text: The telomerase activity of the compounds of the invention has been evaluated using a Flash Plate-based assay. […] Other methods for determining the inhibitory concentration of a compound of the invention against telomerase can be employed as will be apparent to a person skilled in the art based on the disclosure herein.
Briefly, the assay mixture is costituted by:
telomerase enzyme diluted in a buffer, the composition of which has been selected to maintain the enzyme activity stable along the duration of the assay.
dNTPs, deoxynucleotides 5′-triphosphate.
biotynilated oligo as primer.
increasing concentrations of test compounds/positive control.
After two hours of incubation at […] the telomeric repeats added are evaluated by hybridization in solution with a 3′-labeled short oligonucleotide probe.
The extent of hybridization is then quantitated by transferring the reaction mixture in a streptavidin-coated flash plate, where the binding between biotin and streptavidin occurs.
The telomerase activity is proportional to the radioactivity measured and the inhibitory activity of the compounds is evaluated as IC50 using the Sigma Plot fit program.
With the above-described method, IC50 values of the compounds of the present invention were determined.

Chain of telomerase enzyme (O14746 whole entry): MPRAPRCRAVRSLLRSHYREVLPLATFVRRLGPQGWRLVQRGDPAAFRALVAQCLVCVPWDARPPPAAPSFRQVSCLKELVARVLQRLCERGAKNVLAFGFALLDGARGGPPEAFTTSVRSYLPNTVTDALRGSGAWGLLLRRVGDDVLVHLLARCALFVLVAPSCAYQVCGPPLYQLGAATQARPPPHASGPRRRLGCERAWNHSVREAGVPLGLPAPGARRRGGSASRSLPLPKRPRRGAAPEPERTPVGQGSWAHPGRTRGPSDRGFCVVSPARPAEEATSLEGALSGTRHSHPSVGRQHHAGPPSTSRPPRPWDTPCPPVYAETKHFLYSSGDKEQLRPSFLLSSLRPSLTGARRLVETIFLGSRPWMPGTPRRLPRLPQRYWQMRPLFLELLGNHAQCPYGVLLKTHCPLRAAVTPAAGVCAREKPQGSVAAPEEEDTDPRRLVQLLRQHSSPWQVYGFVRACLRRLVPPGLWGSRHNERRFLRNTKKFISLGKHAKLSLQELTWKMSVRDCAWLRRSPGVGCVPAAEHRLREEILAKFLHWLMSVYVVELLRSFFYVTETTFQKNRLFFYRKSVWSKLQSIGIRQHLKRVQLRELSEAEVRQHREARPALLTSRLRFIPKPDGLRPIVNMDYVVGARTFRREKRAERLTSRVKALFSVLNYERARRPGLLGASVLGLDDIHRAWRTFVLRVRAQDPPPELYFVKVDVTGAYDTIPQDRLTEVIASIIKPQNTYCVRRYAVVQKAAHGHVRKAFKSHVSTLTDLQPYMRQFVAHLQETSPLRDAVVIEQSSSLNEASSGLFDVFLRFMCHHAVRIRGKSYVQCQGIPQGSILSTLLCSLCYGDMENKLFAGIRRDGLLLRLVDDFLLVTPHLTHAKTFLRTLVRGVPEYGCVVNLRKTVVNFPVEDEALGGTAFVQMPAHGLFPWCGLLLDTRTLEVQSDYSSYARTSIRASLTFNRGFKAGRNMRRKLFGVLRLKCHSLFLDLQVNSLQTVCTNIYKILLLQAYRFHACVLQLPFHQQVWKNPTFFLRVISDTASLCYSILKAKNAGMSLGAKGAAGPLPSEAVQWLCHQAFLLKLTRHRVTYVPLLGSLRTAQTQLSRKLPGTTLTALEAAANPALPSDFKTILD

- IC50: 12.3 µM
SMILES: COC(=O)c1ccc(Cn2c(N)nc3ncn(Cc4ccc(C(=O)OC)cc4)c3c2=O)cc1 [compound 13, methyl 4-({2-amino-7-[4-(methoxycarbonyl)benzyl]-6-oxo-6,7-dihydro-1H-purin-1-yl}methyl) benzoate]
